Measurements reported in ChEMBL document CHEMBL3232855, “The discovery of N-((2H-tetrazol-5-yl)methyl)-4-((R)-1-((5r,8R)-8-(tert-butyl)-3-(3,5-dichlorophenyl)-2-oxo-1,4-diazaspiro[4.5]dec-3-en-1-yl)-4,4-dimethylpentyl)benzamide (SCH 900822): a potent and selective glucagon receptor antagonist” (J Med Chem, 2014).

How the values were obtained:
[1] = target: Glucagon-like peptide 1 receptor (Homo sapiens, UniProt P43220); assay: Antagonist activity at human GLP-1R expressed in CHO cells assessed as inhibition of GLP-1-stimulated cAMP production preincubated for 30 mins followed by GLP-1 induction measured after 45 mins by LANCE assay; format: functional, cell-based
Glucagon receptor [2] = target: T1, Glucagon receptor (Homo sapiens, UniProt P47871); assay: Antagonist activity at human GCGR expressed in CHO cells assessed as inhibition of glucagon-stimulated cAMP production preincubated for 30 mins followed by glucagon induction measured after 45 mins by LANCE assay; format: functional, cell-based
Glucagon receptor [3] = target: T1, Glucagon receptor; assay: biochemical; format: cell-based, CHO
Description: Displacement of [125I]-glucagon from recombinant human GCGR expressed in CHO cells after 60 mins by scintillation counting analysis

Glucagon receptor [4] = target: Glucagon receptor (Mus musculus, UniProt Q61606); format: cell membranes, Liver, Membrane
Glucagon receptor (Mus musculus, UniProt Q61606), sequence (Q61606 whole entry): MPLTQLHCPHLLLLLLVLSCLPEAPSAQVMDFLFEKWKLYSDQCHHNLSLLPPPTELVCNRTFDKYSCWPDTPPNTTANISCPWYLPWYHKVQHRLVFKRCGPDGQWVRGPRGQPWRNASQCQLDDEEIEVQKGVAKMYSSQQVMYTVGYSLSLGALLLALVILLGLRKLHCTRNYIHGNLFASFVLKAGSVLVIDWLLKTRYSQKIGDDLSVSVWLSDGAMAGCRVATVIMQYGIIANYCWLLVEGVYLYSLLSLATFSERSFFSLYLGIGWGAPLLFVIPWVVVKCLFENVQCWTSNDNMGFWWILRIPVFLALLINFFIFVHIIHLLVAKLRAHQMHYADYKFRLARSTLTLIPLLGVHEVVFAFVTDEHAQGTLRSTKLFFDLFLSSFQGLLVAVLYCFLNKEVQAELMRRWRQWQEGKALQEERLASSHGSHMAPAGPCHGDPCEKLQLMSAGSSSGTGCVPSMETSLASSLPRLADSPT
Description: Displacement of [125I]-glucagon from GCGR in mouse liver membranes after 60 mins by scintillation counting analysis

Glucagon-like peptide 1 receptor, sequence (P43220 whole entry): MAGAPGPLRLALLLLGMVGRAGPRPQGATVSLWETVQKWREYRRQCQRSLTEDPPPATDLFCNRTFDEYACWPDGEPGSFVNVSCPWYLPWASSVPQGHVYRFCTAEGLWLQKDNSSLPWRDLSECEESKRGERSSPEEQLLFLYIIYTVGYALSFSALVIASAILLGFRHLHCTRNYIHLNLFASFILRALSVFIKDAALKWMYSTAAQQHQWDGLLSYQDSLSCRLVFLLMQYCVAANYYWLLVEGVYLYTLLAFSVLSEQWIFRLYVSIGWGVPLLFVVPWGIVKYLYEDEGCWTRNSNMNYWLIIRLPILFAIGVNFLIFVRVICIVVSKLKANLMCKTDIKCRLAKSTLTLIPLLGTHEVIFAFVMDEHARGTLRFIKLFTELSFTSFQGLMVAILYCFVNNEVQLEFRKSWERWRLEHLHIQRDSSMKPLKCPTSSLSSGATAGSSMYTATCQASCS
T1 sequence (P47871 whole entry): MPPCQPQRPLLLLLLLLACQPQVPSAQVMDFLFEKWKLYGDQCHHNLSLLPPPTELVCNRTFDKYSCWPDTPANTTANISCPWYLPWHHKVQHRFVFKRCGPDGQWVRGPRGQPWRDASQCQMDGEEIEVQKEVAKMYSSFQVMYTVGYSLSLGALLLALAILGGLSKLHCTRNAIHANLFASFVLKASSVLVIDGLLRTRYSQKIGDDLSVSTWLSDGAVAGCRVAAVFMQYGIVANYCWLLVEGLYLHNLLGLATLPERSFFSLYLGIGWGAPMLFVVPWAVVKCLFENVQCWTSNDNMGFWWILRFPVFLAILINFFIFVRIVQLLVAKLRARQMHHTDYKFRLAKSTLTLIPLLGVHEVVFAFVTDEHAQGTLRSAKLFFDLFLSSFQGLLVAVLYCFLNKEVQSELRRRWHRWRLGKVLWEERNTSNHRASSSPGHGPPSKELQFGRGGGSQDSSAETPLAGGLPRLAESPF

SMILES | IC50 [1] | IC50 (Glucagon receptor [2]) | IC50 (Glucagon receptor [3]) | IC50 (Glucagon receptor [4])
C[C@H](NC(=O)c1ccc([C@@H](CCC(C)(C)C)N2C(=O)C(c3cc(Cl)cc(Cl)c3)=N[C@]23CC[C@@H](C(C)(C)C)CC3)cc1)c1nnn[nH]1 | > 10 µM | > 10 µM | – | –
CCC[C@H](c1ccc(C(=O)NCc2nn[nH]n2)cc1)N1C(=O)C(c2cc(Cl)cc(Cl)c2)=N[C@]12CC[C@@H](C(C)(C)C)CC2 | > 10 µM | 0.22 µM | 0.055 µM | 0.5 µM
COc1ccc(C2=N[C@]3(CC[C@@H](C(C)(C)C)CC3)N([C@H](CCC(C)(C)C)c3ccc(C(=O)NCc4nn[nH]n4)cc3)C2=O)cc1 | > 10 µM | 0.36 µM | 0.026 µM | –
CC(C)(C)CC[C@H](c1ccc(C(=O)NCc2nn[nH]n2)cc1)N1C(=O)C(c2cncc(Cl)c2)=N[C@]12CC[C@@H](C(C)(C)C)CC2 | > 10 µM | 0.48 µM | 0.038 µM | 0.084 µM
C[C@H](c1ccc(C(=O)NC[C@@H](O)C(=O)O)cc1)N1C(=O)C(c2cc(Cl)cc(Cl)c2)=N[C@]12CC[C@@H](C(C)(C)C)CC2 | > 10 µM | > 10 µM | 0.19 µM | 1.1 µM
CC(C)(C)CC[C@H](c1ccc(C(=O)NCc2nn[nH]n2)cc1)N1C(=O)C(c2ccc(F)c(F)c2)=N[C@]12CC[C@@H](C(C)(C)C)CC2 | > 10 µM | 0.18 µM | 0.013 µM | 0.17 µM
C[C@H](c1ccc(C(=O)NCCC(=O)O)cc1)N1C(=O)C(c2cccc(Cl)c2)=N[C@]12CC[C@@H](C(C)(C)C)CC2 | 3.9 µM | 0.48 µM | 0.13 µM | 3.3 µM
C[C@@H](NC(=O)c1ccc([C@@H](CCC(C)(C)C)N2C(=O)C(c3cc(Cl)cc(Cl)c3)=N[C@]23CC[C@@H](C(C)(C)C)CC3)cc1)c1nnn[nH]1 | > 10 µM | 4.5 µM | – | –
C[C@@H](CC(=O)O)NC(=O)c1ccc([C@@H](CCC(C)(C)C)N2C(=O)C(c3cc(Cl)cc(Cl)c3)=N[C@]23CC[C@@H](C(C)(C)C)CC3)cc1 | > 10 µM | > 10 µM | – | –
C[C@H](c1ccc(C(=O)NCCC(=O)O)cc1)N1C(=O)C(c2ccc(Cl)c(Cl)c2)=N[C@]12CC[C@@H](C(C)(C)C)CC2 | 4.4 µM | 0.55 µM | 0.095 µM | 3.2 µM
C[C@H](c1ccc(C(=O)NCCC(=O)O)cc1)N1C(=O)C(c2cccc(C(F)(F)F)c2)=N[C@]12CC[C@@H](C(C)(C)C)CC2 | 6.3 µM | 0.28 µM | 0.72 µM | 2.2 µM
CCCC[C@H](c1ccc(C(=O)NCc2nn[nH]n2)cc1)N1C(=O)C(c2cc(Cl)cc(Cl)c2)=N[C@]12CC[C@@H](C(C)(C)C)CC2 | > 10 µM | 0.38 µM | 0.023 µM | 0.42 µM
COc1cccc(C2=N[C@]3(CC[C@@H](C(C)(C)C)CC3)N([C@H](CCC(C)(C)C)c3ccc(C(=O)NCc4nn[nH]n4)cc3)C2=O)c1 | > 10 µM | 0.23 µM | 0.015 µM | –
C[C@H](c1ccc(C(=O)NC[C@H](O)C(=O)O)cc1)N1C(=O)C(c2cc(Cl)cc(Cl)c2)=N[C@]12CC[C@@H](C(C)(C)C)CC2 | > 10 µM | > 10 µM | 0.16 µM | 1.5 µM
CC(C)(C)CC[C@H](c1ccc(C(=O)NCc2nn[nH]n2)cc1)N1C(=O)C(c2ncccc2C(F)(F)F)=N[C@]12CC[C@@H](C(C)(C)C)CC2 | > 10 µM | 1.6 µM | – | –
CC(C)(C)CC[C@H](c1ccc(C(=O)NCC(=O)O)cc1)N1C(=O)C(c2cc(Cl)cc(Cl)c2)=N[C@]12CC[C@@H](C(C)(C)C)CC2 | > 10 µM | 2.7 µM | – | –
C[C@H](c1ccc(C(=O)NCCC(=O)O)cc1)N1C(=O)C(c2cccc(Cl)c2F)=N[C@]12CC[C@@H](C(C)(C)C)CC2 | > 10 µM | 0.63 µM | 0.62 µM | 4 µM
CC(C)(C)CC[C@H](c1ccc(C(=O)NCc2nn[nH]n2)cc1)N1C(=O)C(c2cc(F)cc(Cl)c2)=N[C@]12CC[C@@H](C(C)(C)C)CC2 | > 10 µM | 0.042 µM | 0.01 µM | 0.16 µM
CC(C)(C)CC[C@H](c1ccc(C(=O)NCc2nn[nH]n2)cc1)N1C(=O)C(c2ccc(C(F)(F)F)cc2)=N[C@]12CC[C@@H](C(C)(C)C)CC2 | > 10 µM | 0.16 µM | 0.007 µM | 0.19 µM
CC[C@H]1CC[C@]2(CC1)N=C(c1cc(Cl)cc(Cl)c1)C(=O)N2[C@H](CCC(C)(C)C)c1ccc(C(=O)NCc2nn[nH]n2)cc1 | > 10 µM | 0.066 µM | 0.044 µM | –
C[C@H](c1ccc(C(=O)NCCC(=O)O)cc1)N1C(=O)C(c2ccc(C(F)(F)F)cc2)=N[C@]12CC[C@@H](C(C)(C)C)CC2 | > 10 µM | 0.91 µM | 0.17 µM | 2.8 µM
C[C@H](c1ccc(C(=O)NCCC(=O)O)cc1)N1C(=O)C(c2cc(F)cc(Cl)c2)=N[C@]12CC[C@@H](C(C)(C)C)CC2 | 5.6 µM | 0.11 µM | 0.006 µM | 0.81 µM

SMILES | IC50 [1] | IC50 (Glucagon receptor [2]) | IC50 (Glucagon receptor [3]) | IC50 (Glucagon receptor [4])
CC(C)CC[C@H](c1ccc(C(=O)NCc2nn[nH]n2)cc1)N1C(=O)C(c2cc(Cl)cc(Cl)c2)=N[C@]12CC[C@@H](C(C)(C)C)CC2 | > 10 µM | 0.15 µM | 0.022 µM | 0.28 µM
CC(C)(C)CC[C@H](c1ccc(C(=O)NCc2nn[nH]n2)cc1)N1C(=O)C(c2cc(Cl)cc(Cl)c2)=N[C@]12CC[C@@H](C)CC2 | > 10 µM | 0.26 µM | 0.036 µM | –
C[C@H](c1ccc(C(=O)NCCC(=O)O)cc1)N1C(=O)C(c2cc(Cl)ccc2F)=N[C@]12CC[C@@H](C(C)(C)C)CC2 | > 10 µM | 0.75 µM | 0.34 µM | 4.6 µM
CC(C)[C@H](c1ccc(C(=O)NCc2nn[nH]n2)cc1)N1C(=O)C(c2cc(Cl)cc(Cl)c2)=N[C@]12CC[C@@H](C(C)(C)C)CC2 | – | 2.2 µM | – | –
CC(C)(C)CC[C@H](c1ccc(C(=O)NCc2nn[nH]n2)cc1)N1C(=O)C(c2cc(F)cc(F)c2)=N[C@]12CC[C@@H](C(C)(C)C)CC2 | > 10 µM | 0.11 µM | 0.023 µM | 0.14 µM
CC(C)(C)CC[C@H](c1ccc(C(=O)NCCCC(=O)O)cc1)N1C(=O)C(c2cc(Cl)cc(Cl)c2)=N[C@]12CC[C@@H](C(C)(C)C)CC2 | > 10 µM | 0.35 µM | 0.27 µM | –
C[C@H](c1ccc(C(=O)NCCC(=O)O)cc1)N1C(=O)C(c2ccc(F)cc2)=N[C@]12CC[C@@H](C(C)(C)C)CC2 | 7.8 µM | 0.43 µM | 0.085 µM | 2.5 µM
CC(C)(C)[C@H]1CC[C@]2(CC1)N=C(c1cc(Cl)cc(Cl)c1)C(=O)N2CCc1ccc(C(=O)NCCC(=O)O)cc1 | > 10 µM | 0.17 µM | 0.17 µM | 1.5 µM
CC(C)(C)CC[C@H](c1ccc(C(=O)NCc2nn[nH]n2)cc1)N1C(=O)C(c2cccc(C(F)(F)F)c2)=N[C@]12CC[C@@H](C(C)(C)C)CC2 | > 10 µM | 0.18 µM | 0.013 µM | 0.14 µM
CC(C)(C)CC[C@H](c1ccc(C(=O)NCCC2=NNNN2)cc1)N1C(=O)C(c2cc(Cl)cc(Cl)c2)=N[C@]12CC[C@@H](C(C)(C)C)CC2 | > 10 µM | 0.89 µM | 0.065 µM | –
CCCCC[C@H](c1ccc(C(=O)NCc2nn[nH]n2)cc1)N1C(=O)C(c2cc(Cl)cc(Cl)c2)=N[C@]12CC[C@@H](C(C)(C)C)CC2 | > 10 µM | 0.13 µM | 0.024 µM | 0.31 µM
CC(C)(C)CC[C@H](c1ccc(C(=O)NC[C@H](O)C(=O)O)cc1)N1C(=O)C(c2cc(Cl)cc(Cl)c2)=N[C@]12CC[C@@H](C(C)(C)C)CC2 | > 10 µM | 0.37 µM | 0.086 µM | –
CC[C@H](c1ccc(C(=O)NCc2nn[nH]n2)cc1)N1C(=O)C(c2cc(Cl)cc(Cl)c2)=N[C@]12CC[C@@H](C(C)(C)C)CC2 | > 10 µM | 0.27 µM | 0.082 µM | 0.37 µM
CC(C)C[C@H](c1ccc(C(=O)NCc2nn[nH]n2)cc1)N1C(=O)C(c2cc(Cl)cc(Cl)c2)=N[C@]12CC[C@@H](C(C)(C)C)CC2 | > 10 µM | 0.76 µM | 0.015 µM | 0.42 µM
CC(C)[C@H]1CC[C@]2(CC1)N=C(c1cc(Cl)cc(Cl)c1)C(=O)N2[C@H](CCC(C)(C)C)c1ccc(C(=O)NCc2nn[nH]n2)cc1 | > 10 µM | 0.052 µM | 0.031 µM | 0.2 µM
C[C@H](c1ccc(C(=O)NCCC(=O)O)cc1)N1C(=O)C(c2ccc(F)c(Cl)c2)=N[C@]12CC[C@@H](C(C)(C)C)CC2 | 4.3 µM | 0.44 µM | 0.044 µM | 2.3 µM
CC(C)(C)CC[C@H](c1ccc(C(=O)NC[C@@H](O)C(=O)O)cc1)N1C(=O)C(c2cc(Cl)cc(Cl)c2)=N[C@]12CC[C@@H](C(C)(C)C)CC2 (mixture of isomers) | > 10 µM | 0.4 µM | 0.149 µM | –
CC(C)(C)CC[C@H](c1ccc(C(=O)Nc2nnn[nH]2)cc1)N1C(=O)C(c2cc(Cl)cc(Cl)c2)=N[C@]12CC[C@@H](C(C)(C)C)CC2 | 0.14 µM | 0.85 µM | 0.6 µM | –
CC(C)(C)CC[C@H](c1ccc(C(=O)NCCS(=O)(=O)O)cc1)N1C(=O)C(c2cc(Cl)cc(Cl)c2)=N[C@]12CC[C@@H](C(C)(C)C)CC2 | > 10 µM | 8.5 µM | – | –
C[C@@H](c1ccc(C(=O)NCCC(=O)O)cc1)N1C(=O)C(c2cc(Cl)cc(Cl)c2)=N[C@]12CC[C@@H](C(C)(C)C)CC2 | > 10 µM | 5.1 µM | – | –
CC(C)(C)CC[C@H](c1ccc(C(=O)NCc2nn[nH]n2)cc1)N1C(=O)C(c2cc(Cl)cc(Cl)c2)=NC1(C)C | > 10 µM | – | – | –
CC(C)(C)CC[C@H](c1ccc(C(=O)NCc2nn[nH]n2)cc1)N1C(=O)C(c2cc(Cl)cc(Cl)c2)=NC12CCCCC2 | > 10 µM | 0.51 µM | 0.195 µM | –
